Earlier results, collected in publication PMC9377007, “An Unexpected Deuterium-Induced Metabolic Switch in Doxophylline” (ACS Medicinal Chemistry Letters, 2022).

Experiments:
[1] = tested on: antibronchospastic and antiasthmatic effects; design: method as in PMID 1652045; details: ref [31]; cited from earlier work
PDE-III and IV isozymes = tested on: PDE-III and IV isozymes; design: method as in PMID 1328102; details: ref [30]; cited from earlier work

Question: For `Cn1c(=O)c2c(ncn2CCO)n(C)c1=O` [etophylline, 7-hydroxyethyltheophylline], which “antibronchospastic and antiasthmatic effects relative to doxophylline” value [1] is on record?
Answer: significantly less active than doxophylline

Question: Which “inhibition of PDE-III and IV isozymes” value (PDE-III and IV isozymes) does the source give for `Cn1c(=O)c2c(ncn2CC(=O)O)n(C)c1=O` [T-COOH, 7-theophylline acetic acid] here?
Answer: specific inhibition
